Assay results: patent publication US20170290774A1, “NEUROKININ-1 RECEPTOR ANTAGONIST COMPOSITION FOR TREATMENT OF DISEASES AND CONDITIONS OF THE RESPIRATORY TRACT” (PLUS VITECH, S.L., priority 2014, published 2017)
Where two headings read alike, the source gives them in different places.

Tests used:
[1] = Saturation concentration in different oils (soy, sunflower, rapeseed); format: physicochemical; conditions: 25° C.
Protocol: Each of said mixtures was continuously and gently stirred for 10 minutes at ambient temperature (25° C.) and then maintained at rest for 60 minutes. The saturation concentration was considered to be that which was immediately less than a concentration where deposition was observed, but in which no deposition of the active ingredient was observed.

[2] = system: VEGF; assay: Immunohistochemistry of VEGF in respiratory tract tissue of sodium hypochlorite aerosol-treated rabbits; format: in vivo, New Zealand albino rabbits
Excerpt: It is known that the factors TGF-α, TGF-β 1, TGF-β 2, TGF-β 3, SPARC, MMP-3; MMP-7, MMP-9, MMP-11, MMP-13 and MMP-14, TGF-β, NF-kB, EGF, MMP-9, VEGF and TNF-α which are produced by lung cells (pneumocytes, fibroblasts and vascular endothelial cells) and inflammatory cells (macrophages, lymphocytes and polymorphonuclear leukocytes) are involved in the pathophysiology and development of said respiratory tract diseases. […] Herein, 27 New Zealand albino rabbits (New Zealand White Rabbit) with an initial average weight about 3 kg were used in this example. All subjects were administered an aerosol of a solution consisting of a mixture of water and sodium hypochlorite (35 g sodium hypochlorite per liter of water) at a rate of 5 mL of said solution by inhalation three times a day for 7 days (days 1 to 7 of experimentation). Subsequently, from days 3 to 7, a group of 3 rabbits (Group 1) was administered an oral dose of 10 mg/kg body weight per day, another group of 3 rabbits (Group 2) was administered an oral dose of 40 mg/kg body weight per day, a third group (Group 3) was administered an oral dose of 80 mg/kg body weight per day and a fourth group (Group 4) was administered an oral dose of 100 mg/kg body weight per day. […] This mixture was administered as an aerosol by inhalation, also from days 3 to 7, to a group of 3 rabbits (group 5) at a dose of 0.05 mg/kg body weight per day, to another group of three rabbits (Group 6) at a dose of 0.1 mg/kg body weight per day, to another group of three rabbits (Group 7) at a dose of 0.2 mg/kg body weight per day and to another group of three rabbits (Group 8) at a dose of 0.4 mg/kg body weight per day. A placebo consisting only of olive oil was administered from days 3 to 7 to a control group of 3 rabbits (placebo group). In parallel, 3 rabbits were kept under identical conditions but were not administered any treatment nor the aforementioned sodium hypochlorite solution (control group). […] On day 7 of the experiment all animals were euthanized and necropsied. […] Samples were taken at the peripheral level of the lung parenchyma, just below the pleural surface. Tissue samples were also taken from the nasal cavity, pharynx, larynx and bronchi. Immunohistochemistry studies were performed for all samples to evaluate the levels of the markers TGF-α, TGF-β 1, TGF-β 2, TGF-β 3 SPARC, MMP-3; MMP-7, MMP-9, MMP-11, MMP-14, TGF-β, TNF-α and VEGF. In said immunohistochemistry studies, a sample of each sample was dehydrated by treatment with increasing concentrations of ethanol and finally xylene. Subsequently said dried samples were embedded in paraffin, thus creating a block. Said paraffin blocks were cut on a microtome to a thickness of 5 μm, and the resulting sections (slices) were placed on slides suitable for conducting immunohistochemistry techniques. Subsequently, the sections were deparaffinised by immersion in xylene and then rehydrated through immersion in a series of solutions containing decreasing concentrations of ethanol and, finally, water. […] The samples were then allowed to cool to room temperature over 10 minutes. Endogenous peroxidase activity was blocked by treatment with 3% hydrogen peroxide over 30 min at room temperature. […] In order to verify the expression of NK1 receptors, the cell samples were incubated in the presence of anti-NK1 antibodies ([…], Sigma-Aldrich) diluted 1:1000 at 4° C. overnight. After this time they were washed in 0.05M Tris buffer at room temperature. Subsequently, Envision System-HRP (Dako) reagents were added for 30 min at room temperature. Once this time had expired, the samples were again washed with 0.05 M Tris buffer, and immunoreactivity was visualized by light microscopy with a chromogenic solution with 3,3'-diaminobenzidine (DAB+; Dako, USA). In order to differentiate the cell nuclei, these were lightly stained with haematoxylin. Samples that were not incubated with the primary antibody, but wherein this was replaced by a non-immune serum were used as negative controls. […]

[3] = cited from earlier work
[4] = single oral dose of 125 mg of Emend
[5] = terminal nephropathy with hemodialysis, single dose of 240 mg of Emend

Question: Which results are given for `C[C@@H](OC1OCCN(Cc2nc(=O)[nH][nH]2)C1c1ccc(F)cc1)c1cc(C(F)(F)F)cc(C(F)(F)F)c1` (stereo in doubt) [Aprepitant, 5-([(2R,3S)-2-((R)-1-[3,5-bis(trifluoromethyl)phenyl]ethoxy)-3-(4-fluorophenyl)morpholino]methyl)-1H-1,2,4-triazol-3(2H)-one]?
Answer: Saturation concentration ([1]; Rapeseed oil): 80 nM; Saturation concentration ([1]; Soy oil): 60 nM; Saturation concentration ([1]; Sunflower oil): 70 nM; Percent increase in VEGF with respect to the control group ([2]; bronchial tissue, Group 1, oral 10 mg/kg per day): 457.34%; Percent increase in VEGF with respect to the control group ([2]; bronchial tissue, Group 2, oral 40 mg/kg per day): 356.45%; Percent increase in VEGF with respect to the control group ([2]; bronchial tissue, Group 3, oral 80 mg/kg per day): 256.34%; Percent increase in VEGF with respect to the control group ([2]; bronchial tissue, Group 4, oral 100 mg/kg per day): 203.56%; % Med G5/C: percent increase in marker VEGF with respect to the control group ([2]; bronchial tissue, Group 5): 324.53%; % Med G6/C: percent increase in marker VEGF with respect to the control group ([2]; bronchial tissue, Group 6): 235.71%; % Med G7/C: percent increase in marker VEGF with respect to the control group ([2]; bronchial tissue, Group 7): 153.57%; % Med G8/C: percent increase in marker VEGF with respect to the control group ([2]; bronchial tissue, Group 8): 112.71%; Percent increase in VEGF with respect to the control group ([2]; laryngeal tissue, Group 1, oral 10 mg/kg per day): 1,134.34%; Percent increase in VEGF with respect to the control group ([2]; laryngeal tissue, Group 2, oral 40 mg/kg per day): 980.54%; Percent increase in VEGF with respect to the control group ([2]; laryngeal tissue, Group 3, oral 80 mg/kg per day): 875.80%; Percent increase in VEGF with respect to the control group ([2]; laryngeal tissue, Group 4, oral 100 mg/kg per day): 667.82%; Percent increase in VEGF with respect to the control group ([2]; laryngeal tissue, Group 5, inhalation 0.05 mg/kg per day): 950.34%; Percent increase in VEGF with respect to the control group ([2]; laryngeal tissue, Group 6, inhalation 0.1 mg/kg per day): 670.32%; Percent increase in VEGF with respect to the control group ([2]; laryngeal tissue, Group 7, inhalation 0.2 mg/kg per day): 570.12%; Percent increase in VEGF with respect to the control group ([2]; laryngeal tissue, Group 8, inhalation 0.4 mg/kg per day): 250.21%; Percent increase in VEGF with respect to the control group ([2]; lung tissue, Group 1, oral 10 mg/kg per day): 655.77%; Percent increase in VEGF with respect to the control group ([2]; lung tissue, Group 2, oral 40 mg/kg per day): 512.28%; Percent increase in VEGF with respect to the control group ([2]; lung tissue, Group 3, oral 80 mg/kg per day): 458.30%; Percent increase in VEGF with respect to the control group ([2]; lung tissue, Group 4, oral 100 mg/kg per day): 342.93%; Percent increase in VEGF with respect to the control group ([2]; lung tissue, Group 5, inhalation 0.05 mg/kg per day): 575.62%; Percent increase in VEGF with respect to the control group ([2]; lung tissue, Group 6, inhalation 0.1 mg/kg per day): 391.91%; Percent increase in VEGF with respect to the control group ([2]; lung tissue, Group 7, inhalation 0.2 mg/kg per day): 200.18%; Percent increase in VEGF with respect to the control group ([2]; lung tissue, Group 8, inhalation 0.4 mg/kg per day): 145.64%; Percent increase in VEGF with respect to the control group ([2]; nasal cavity tissue, Group 1, oral 10 mg/kg per day): 1,293.11%; Percent increase in VEGF with respect to the control group ([2]; nasal cavity tissue, Group 2, oral 40 mg/kg per day): 969.58%; Percent increase in VEGF with respect to the control group ([2]; nasal cavity tissue, Group 3, oral 80 mg/kg per day): 716.62%; Percent increase in VEGF with respect to the control group ([2]; nasal cavity tissue, Group 4, oral 100 mg/kg per day): 576.80%; Percent increase in VEGF with respect to the control group ([2]; nasal cavity tissue, Group 5, inhalation 0.05 mg/kg per day): 1,727.98%; Percent increase in VEGF with respect to the control group ([2]; nasal cavity tissue, Group 6, inhalation 0.1 mg/kg per day): 1,010.56%; Percent increase in VEGF with respect to the control group ([2]; nasal cavity tissue, Group 7, inhalation 0.2 mg/kg per day): 323.15%; Percent increase in VEGF with respect to the control group ([2]; nasal cavity tissue, Group 8, inhalation 0.4 mg/kg per day): 145.68%; Percent increase in VEGF with respect to the control group ([2]; pharyngeal tissue, Group 1, oral 10 mg/kg per day): 1,789.12%; Percent increase in VEGF with respect to the control group ([2]; pharyngeal tissue, Group 2, oral 40 mg/kg per day): 1,256.67%; Percent increase in VEGF with respect to the control group ([2]; pharyngeal tissue, Group 3, oral 80 mg/kg per day): 998.56%; Percent increase in VEGF with respect to the control group ([2]; pharyngeal tissue, Group 4, oral 100 mg/kg per day): 567.45%; Percent increase in VEGF with respect to the control group ([2]; pharyngeal tissue, Group 5, inhalation 0.05 mg/kg per day): 1,858.37%; Percent increase in VEGF with respect to the control group ([2]; pharyngeal tissue, Group 6, inhalation 0.1 mg/kg per day): 1,198.56%; Percent increase in VEGF with respect to the control group ([2]; pharyngeal tissue, Group 7, inhalation 0.2 mg/kg per day): 654.32%; Percent increase in VEGF with respect to the control group ([2]; pharyngeal tissue, Group 8, inhalation 0.4 mg/kg per day): 121.34%; effect of mild hepatic insufficiency on pharmacokinetics ([3]; Child-Pugh score of 5 to 6): does not affect to a clinically relevant degree; oral bioavailability ([3]; Emend capsule of 80 mg): 67%; oral bioavailability ([3]; Emend capsule of 125 mg): 59%; linearity of pharmacokinetics ([3]; clinical dose interval): non-linear pharmacokinetics; AUC0-24 h greater in elderly (≧65 years) than younger adults ([3]; day 1, oral 125 mg Emend): 21%; Cmax greater in elderly than younger adults ([3]; day 1): 10%; AUC0-24 h greater in elderly (≧65 years) than younger adults ([3]; day 5, 80 mg once a day): 36%; Cmax greater in elderly than younger adults ([3]; day 5): 24%; share of plasma radioactivity ([3]; healthy young adults, over 72 hours after single 100 mg intravenous dose of [C14] prodrug): approximately 19%; increase in AUC0-∞ greater in proportion to the dose ([3]; healthy young adults, single doses of 80 mg and 125 mg, postprandial): 26%; metabolites identified in human plasma ([3]; human plasma): 12; increase of AUC with food ([3]; oral capsule with standard breakfast of approximately 800 Kcal): up to 40%; Tmax ([3]; oral): approximately 4 hours; reduction of AUC0-∞ of total aprepitant with respect to healthy patients ([3]; severe renal insufficiency (CrCl<30 ml/min), single dose of 240 mg of Emend): 21%; reduction of Cmax with respect to healthy patients ([3]; severe renal insufficiency, single dose of 240 mg of Emend): 32%; Cmax greater in women than men [3, 4]: 16%; half-life greater in women than men [3, 4]: 25%; reduction of AUC0-∞ of total aprepitant [3, 5]: 42%; reduction of Cmax [3, 5]: 32%
